# Literature values in US20250375365A1, “MOUTH RESCUE RINSE AND METHODS OF REGULATING BLOOD PRESSURE” (University of Florida Research Foundation, Inc., priority 2024, published 2025).
# Experiments:
# [1] = CHX rinses, healthy subjects; some studies reported
structure (smiles),measurement,setting,value
"N=C(NCCCCCCNC(=N)NC(=N)Nc1ccc(Cl)cc1)NC(=N)Nc1ccc(Cl)cc1.O=C(O)[C@H](O)[C@@H](O)[C@H](O)[C@H](O)CO.O=C(O)[C@H](O)[C@@H](O)[C@H](O)[C@H](O)CO [CHX, chlorhexidine gluconate]",reduction of oral microbiome associated with oral nitrate production,oral microbiome; one-week CHX course,significantly impact the reduction of oral microbiome
same,bacterial species associated with oral inflammation,oral microbiome; oral antiseptic mouthwash,effectively reduced bacterial species
same,blood pressure values versus controls,[1],higher blood pressure values
